Reference: patent publication US20230406865A1, “CRYSTAL FORM OF FREE BASE OF INHIBITOR CONTAINING BICYCLIC RING DERIVATIVE AND PREPARATION METHOD AND APPLICATION OF CRYSTAL FORM” (SHANGHAI HANSOH BIOMEDICAL CO., LTD., priority 2020, published 2023)

What was measured:
[1] = tested on: phosphorylation of ERK, a downstream signal factor of TT cells; assay: Inhibition of ERK phosphorylation in TT cells (Western Blot); assay type: cell-based, human; settings: for inhibition of ERK phosphorylation: 2 hours, TT cells; for inhibition of phosphorylation level of ERK in TT cells: 3.7-300 nM, 2 hours at 37° C., Western Blot
Excerpt: 2.2 Experimental Reagents: • pERK antibody was purchased from Cell Signaling Technology Company, the article number was 43705; • Total ERK antibody was purchased from Cell Signaling Technology Company, the article number was 4696S; • The internal reference GAPDH was purchased from Cell Signaling Technology Company, the article number was 51745; • The fluorescent secondary antibodies were purchased from LI-COR Company, the article numbers were P/N 925-68071 and P/N 926-32210.
In this experiment, the inhibitory effect of compounds on the phosphorylation level of ERK, a downstream signaling factor in TT cells was measured by Western Blot method. When TT cells were cultured to the appropriate fusion level, the cells were collected and adjusted to the appropriate cell concentration using complete medium, the cell suspension was spread in a 24-well plate, 1 mL per well, and placed in the wall of a 37° C., 5% CO2 incubator overnight, and compound dilutions of different concentrations (3.7 nM, 11.1 nM, 33.3 nM, 100 nM, 300 nM) were added at 37° C. and acted for 2 hours; the cell supernatant was aspirated, washed one time with PBS, and the proteins were collected with lysate; after protein denaturation, Western blot experiments were performed: performing protein electrophoresis at 120V for approximately 75 minutes, followed by 45 minutes of transfer to PVDF membranes at 10V with a semi-dry transfer instrument, enclosing at 5% BSA for 1 hour at room temperature, and then PVDF membranes were cut into strips of appropriate size and incubated with prepared antibody dilutions overnight at 4° C. and washed 6 times with TBST, followed by incubating with goat anti-mouse secondary antibody and goat anti-rabbit secondary antibody for 1 hour at room temperature, and the membrane was washed 6 times with TBST for imaging in the Biorad ChemiDoc™ MP Imaging System.
The inhibitory effect of compounds on ERK phosphorylation levels in TT cells at different concentrations was determined by detecting protein bands.

[2] = tested on: xenograft tumor of human myeloid thyroid cancer cell TT; assay: Subcutaneous xenograft tumor model of human myeloid thyroid cancer cell TT; assay type: in vivo, BALB/c nude mice
Protocol: BALB/c nude mice, female, 6-8 weeks old, weighing 18-22 g, provided by Shanghai Lingchang Biotechnology Co., Ltd.
TT cells were cultured in vitro in a monolayer under the following conditions: F-12K medium with 20% heat-inactivated fetal bovine serum and 1% penicillin-streptomycin double antibodies at 37° C. and 5% CO2. Digestion with trypsin-EDTA was performed to treat the passage twice a week. When cells were in an exponential growth period, cells were collected, counted and inoculated.
TT cells were collected when they were full in a logarithmic growth period, ensuring vitality over 90%. 0.2 mL of cell suspension containing about 1×10^7 of TT cells (cells suspended in basic F-12K medium and added with 50% Matrigel) was inoculated subcutaneously into the right back […] of each mouse when the mean volume of the tumor reached about 150-200 mm^3 to start group administration.
1. The day of grouping was day 0 (DO). The interval of BID administration was 6-8 h/18-16 h. The first administration was given in the afternoon of day DO and the last administration was given in the morning of day D21.
2. Administration volume: 10 μL/g according to the body weight of nude mice.
Animal grouping: animals were weighed before administration and the tumor volume was measured. Animals were randomly grouped according to tumor volume (randomized grouping design) with 5 animals per group.
Experimental index: the diameter of tumor was measured by vernier caliper twice a week. The tumor volume was calculated by the formula: V=a×b^2/2, a and b denote the long and short diameter of the tumor, respectively. The tumor inhibition efficacy of the compounds was evaluated by TGI (%). TGI (%)=(1-(TVTreatment/Dx−TVTreatment/D1)/(TVControl/Dx−TVControl/D1))×100%.

hERG = hERG (Homo sapiens, UniProt Q12809); assay: cell-based
Protocol: Terfenadine (Sigma-Aldrich, MKBX6318V); • HEK293-hERG cell line (human embryonic kidney cells stably expressing hERG channels), provided by Academy of Military Medical Sciences.
Human embryonic kidney cells (HEK293) stably expressing hERG channels were cultured in DMEM medium (DMEM, HyClone) in a 37° C. cell incubator containing 5% CO2. About 10% fetal bovine serum (FBS, gibco) was added to the cell culture medium.
Human embryonic kidney cells stably expressing hERG channels (HEK293-hERG) were used for the experiment. HEK293 cells were clamped with the Multi Clamp 700B manual patch clamp system to form a whole-cell voltage clamp pattern, and hERG current was induced with the corresponding voltage. […] The peak values of tail current recorded under the solvent control were taken as 100%, and the data of positive control and test samples were standardized. Curve fitting and IC50 calculation were done in the software GraphPad Prism 5.00 using the standard Hill equation.

Chain of hERG (Q12809 whole entry): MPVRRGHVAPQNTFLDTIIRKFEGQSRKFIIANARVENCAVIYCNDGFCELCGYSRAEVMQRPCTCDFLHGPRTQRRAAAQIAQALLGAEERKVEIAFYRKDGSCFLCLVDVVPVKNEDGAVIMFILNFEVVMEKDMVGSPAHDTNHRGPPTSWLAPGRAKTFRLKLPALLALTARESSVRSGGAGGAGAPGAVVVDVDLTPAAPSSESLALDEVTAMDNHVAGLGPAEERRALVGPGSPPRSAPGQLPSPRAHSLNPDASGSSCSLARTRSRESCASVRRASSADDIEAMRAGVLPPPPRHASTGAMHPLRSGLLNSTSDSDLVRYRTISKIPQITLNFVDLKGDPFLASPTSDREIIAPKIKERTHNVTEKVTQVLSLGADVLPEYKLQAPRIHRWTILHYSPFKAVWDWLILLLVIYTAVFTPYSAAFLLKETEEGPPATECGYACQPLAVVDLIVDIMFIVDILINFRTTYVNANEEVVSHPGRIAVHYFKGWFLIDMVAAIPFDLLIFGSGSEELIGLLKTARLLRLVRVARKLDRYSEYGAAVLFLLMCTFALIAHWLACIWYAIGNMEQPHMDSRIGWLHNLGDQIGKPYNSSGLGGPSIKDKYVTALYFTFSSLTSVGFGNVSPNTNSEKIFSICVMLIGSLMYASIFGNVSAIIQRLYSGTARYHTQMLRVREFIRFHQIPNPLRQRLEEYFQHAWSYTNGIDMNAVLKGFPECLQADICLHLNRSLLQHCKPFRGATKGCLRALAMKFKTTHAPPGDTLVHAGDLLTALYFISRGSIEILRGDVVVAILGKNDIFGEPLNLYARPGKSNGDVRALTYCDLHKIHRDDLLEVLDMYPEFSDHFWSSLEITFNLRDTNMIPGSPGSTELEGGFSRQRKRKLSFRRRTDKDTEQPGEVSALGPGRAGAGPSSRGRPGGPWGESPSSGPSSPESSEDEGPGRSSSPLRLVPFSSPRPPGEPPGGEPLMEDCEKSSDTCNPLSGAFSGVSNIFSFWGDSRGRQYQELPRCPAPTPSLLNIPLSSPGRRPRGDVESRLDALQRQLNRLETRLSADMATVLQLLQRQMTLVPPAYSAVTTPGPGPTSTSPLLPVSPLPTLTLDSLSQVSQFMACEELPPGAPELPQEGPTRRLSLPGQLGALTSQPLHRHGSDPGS

Structure (SMILES) | inhibition of ERK phosphorylation ([1]; 3.7 nM) | inhibition of ERK phosphorylation ([1]; 11.1 nM) | inhibition of ERK phosphorylation ([1]; 33.3 nM) | inhibition of ERK phosphorylation ([1]; 100 nM) | inhibition of ERK phosphorylation ([1]; 300 nM) | inhibition of phosphorylation level of ERK in TT cells [1] | further results
C#C[C@](C)(O)COc1cc(-c2ccc(N3CC4CC(C3)N4Cc3ccc(OC)nc3)nc2)c2c(C#N)cnn2c1 [Embodiment 64, 6-(((S)-2-hydroxy-2-methylbut-3-yn-1-yl)oxy)-4-(6-(6-((6-methoxypyridin-3-yl)methyl)-3,6-diazabicyclo[3.1.1]heptan-3-yl)pyridin-3-yl)pyrazolo[1,5-a]pyridine-3-carbonitrile] | the inhibition level was weaker | half | the degree of inhibition was reduced | completely inhibit | completely inhibit | significantly inhibit | 
COc1ncc(CN2C3CC2CN(c2ccc(-c4cc(C#CC(C)(C)O)cn5ncc(C#N)c45)cn2)C3)cc1F [Embodiment 18, 4-(6-(6-((5-Fluoro-6-methoxypyridin-3-yl)methyl)-3,6-diazabicyclo[3.1.1]heptan-3-yl)pyridin-3-yl)-6-(3-hydroxy-3-methylbut-1-yn-1-yl)pyrazolo[1,5-a]pyridine-3-carbonitrile] |  |  |  |  |  |  | Tumor volume (mean ± SEM) d 0 ([2]; 30 mg/kg oral BID): 199.73 ± 24.07 mm^3; Tumor inhibition rate/TGI d 22 ([2]; 30 mg/kg oral BID): 99.64%; Tumor volume (mean ± SEM) d 22 ([2]; 30 mg/kg oral BID): 203.56 ± 31.74 mm^3
C#C[C@@](C)(O)COc1cc(-c2ccc(N3CC4CC(C3)N4Cc3ccc(OC)nc3)nc2)c2c(C#N)cnn2c1 [Embodiment 63, 6-(((R)-2-hydroxy-2-methylbut-3-yn-1-yl)oxy)-4-(6-(6-((6-methoxypyridin-3-yl)methyl)-3,6-diazabicyclo[3.1.1]heptan-3-yl)pyridin-3-yl)pyrazolo[1,5-a]pyridine-3-carbonitrile] | about half | almost completely inhibited | almost completely inhibited | almost completely inhibited | almost completely inhibited | significantly inhibit | IC50 (hERG): 16.9 µM; inhibition at 0.1 μmol/L (hERG; human): 3.24%; inhibition at 1 μmol/L (hERG; human): 8.39%; inhibition at 3 μmol/L (hERG; human): 12.7%; inhibition at 10 μmol/L (hERG; human): 35.4%; inhibition at 30 μmol/L (hERG; human): 58.8%
COc1ccc(CN2C3CC2CN(c2ccc(-c4cc(N5CC(C)(C#N)C5)cn5ncc(C#N)c45)cn2)C3)cn1 [Embodiment 77, 6-(3-Cyano-3-methylazetidin-1-yl)-4-(6-(6-((6-methoxypyridin-3-yl)methyl)-3,6-diazabicyclo[3.1.1]heptan-3-yl)pyridin-3-yl)pyrazolo[1,5-a]pyridine-3-carbonitrile] |  |  |  |  |  |  | Tumor volume (mean ± SEM) d 0 ([2]; 10 mg/kg oral BID): 205.23 ± 16.57 mm^3; Tumor inhibition rate/TGI d 22 ([2]; 10 mg/kg oral BID): 129.77%; Tumor volume (mean ± SEM) d 22 ([2]; 10 mg/kg oral BID): 144.14 ± 8.95 mm^3
